Several values for one entry are separate records, joined by “and”; a condition that tells them apart may be missing. Equal entries are not always repeated.
The compounds below were run against AM2-S31N proton channel (Influenza A virus, UniProt P0DOF5, S31N) (assay: not given). Details: pH 5.5, 100 µM.
Format: biochemical

Compound | Electrophysiological TEVC assay (% S31N channel inhibition)
N-((5-(2-(methylsulfonyl)phenyl)isoxazol-3-yl)methyl)adamantan-1-amine [9m] | 47.4 ± 0.5%

Same assay, conditions: pH 5.5, 100 µM; 100 µM

Compound | Electrophysiological TEVC assay (% S31N channel inhibition)
3-({[5-(3-methoxythiophen-2-yl)-1,2-oxazol-3-yl]methyl}amino)adamantan-1-ol [9s] | 83.8 ± 3.3%
c1ccc(-c2cc(CNC34CC5CC(CC(C5)C3)C4)no2)cc1 [9a, N-[(5-phenyl-1,2-oxazol-3-yl)methyl]adamantan-1-amine] | 91.2 ± 1.5%
OC12CC3CC(C1)CC(NCc1cc(-c4ccccc4Cl)on1)(C3)C2 [9d, 3-({[5-(2-chlorophenyl)-1,2-oxazol-3-yl]methyl}amino)adamantan-1-ol] | > 70%
CSc1ccccc1-c1cc(CNC23CC4CC(CC(O)(C4)C2)C3)no1 [9f, 3-[({5-[2-(methylsulfanyl)phenyl]-1,2-oxazol-3-yl}methyl)amino]adamantan-1-ol] | > 70% and > 90%
Oc1ccccc1-c1cc(CNC23CC4CC(CC(C4)C2)C3)no1 [9h, 2-(3-(((adamantan-1-yl)amino)methyl)isoxazol-5-yl)phenol] | > 70%
Clc1ccc(-c2cc(CNC34CC5CC(CC(C5)C3)C4)no2)s1 [9q, N-((5-(5-chlorothiophen-2-yl)isoxazol-3-yl)methyl)adamantan-1-amine] | > 70%
Clc1cc(-c2cc(CNC34CC5CC(CC(C5)C3)C4)no2)cs1 [9r, N-((5-(5-chlorothiophen-3-yl)isoxazol-3-yl)methyl)adamantan-1-amine] | > 70%
COc1sccc1-c1cc(CNC23CC4CC(CC(C4)C2)C3)no1 [9t, N-((5-(2-methoxythiophen-3-yl)isoxazol-3-yl)methyl)adamantan-1-amine] | > 70%
Clc1cc(-c2cc(CNC34CC5CC(CC(C5)C3)C4)no2)c(Cl)s1 [9u, N-((5-(2,5-dichlorothiophen-3-yl)isoxazol-3-yl)methyl)adamantan-1-amine] | > 70%
OC12CC3CC(C1)CC(NCc1cc(-c4cc(Cl)sc4Cl)on1)(C3)C2 [9v, 3-({[5-(2,5-dichlorothiophen-3-yl)-1,2-oxazol-3-yl]methyl}amino)adamantan-1-ol] | > 70%

These compounds were tested on A/Washington/29/2009 (H1N1) (assay: microbe, parasite or virus in culture). Details: Influenza A virus, H1N1, read-out: EC50 against A/Washington/29/2009 (H1N1).
Format: cell-based

Compound | EC50
Clc1ccc(-c2cc(CNC34CC5CC(CC(C5)C3)C4)no2)s1 [9q, N-((5-(5-chlorothiophen-2-yl)isoxazol-3-yl)methyl)adamantan-1-amine] | 100 to 200 nM

These compounds were tested on A/Denmark/528/2009 (H1N1) (assay: microbe, parasite or virus in culture). Details: Influenza A virus, H1N1, read-out: EC50 against A/Denmark/528/2009 (H1N1).
Format: cell-based

Compound | EC50
Clc1ccc(-c2cc(CNC34CC5CC(CC(C5)C3)C4)no2)s1 [9q, N-((5-(5-chlorothiophen-2-yl)isoxazol-3-yl)methyl)adamantan-1-amine] | 100 to 200 nM

— publication PMC5967881 (Journal of medicinal chemistry, 2017)
